This is an account of results in ChEMBL document CHEMBL1201862, “PubChem BioAssay data set” (2004).

Some test systems named below: MDA-MB-435; RXF 393; ACHN; SF-295; MDA-N; SF-539; Malme-3M; COLO 205; OVCAR-4; HCC 2998; HOP-92; OVCAR-3; DU-145; PC-3; SK-OV-3; UACC-62; HCT-116; CCRF-CEM; M14; SF-268.
Holding throughout (test): NCI anticancer screen, dose series, 48 h

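Values below derive from 48-hour exposures of cells grown in 96-well plates, with endpoints linearly interpolated between the two concentrations bracketing the appropriate inhibition level. The concentration for 50% growth inhibition is given as GI50.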 Calls of active or inactive are those of the source. No stated cut-off is given here; in the data, active = GI50 up to about 1.1 µM and inactive = higher.

Regarding `CC(C)C[C@H](NC(=O)[C@@H](N)Cc1cccc2ccccc12)B(O)O`, the GI50 was < 0.0134 µM (active) in the assay on MDA-MB-435; < 0.017 µM (active) with RXF 393; 0.189 µM (active) with ACHN; < 0.0241 µM (active) in the assay with SF-295; 0.182 µM (active) with MDA-N; 0.0143 µM (active) with SF-539. The GI50 in the assay with Malme-3M is 0.0224 µM (active); in the assay with COLO 205, 0.0417 µM (active); in the assay with OVCAR-4, 0.232 µM (active); in the assay on HCC 2998 it was 0.173 µM (active); with HOP-92, 0.398 µM (active); in the assay with OVCAR-3, < 0.0149 µM (active). Besides, the GI50 with DU-145 was 0.44 µM (active); in the assay on PC-3, 0.0667 µM (active); with SK-OV-3 it was 0.0703 µM (active); with UACC-62 it was 0.0482 µM (active); with HCT-116, < 0.0165 µM (active).
For the compound `CC(=O)C1C(=O)C(=O)N(c2ccc(Br)cc2)C1=O` (stereo unspecified), the GI50 in the assay on MDA-MB-435, in the assay on RXF 393, in the assay on ACHN, with SF-295, with MDA-N and in the assay with SF-539 was > 100 µM (inactive) in each case. In addition, the GI50 with CCRF-CEM, with COLO 205, in the assay on OVCAR-4, with HCC 2998, in the assay on HOP-92 and in the assay on OVCAR-3 was > 100 µM (inactive) each time. Also, the GI50 in the assay with DU-145, with M14, with PC-3, with SF-268, in the assay on SK-OV-3 and with UACC-62 was > 100 µM (inactive) throughout. In addition, the GI50 with HCT-116 was > 100 µM (inactive).
Regarding `O=C1Nc2ccccc2/C1=N/NC(=S)NCc1ccccn1`, the GI50 is 0.931 µM (active) in the assay with MDA-MB-435; 0.2 µM (active) in the assay on ACHN; 0.507 µM (active) in the assay with SF-295; 0.975 µM (active) in the assay with MDA-N; 0.366 µM (active) in the assay with SF-539; < 0.01 µM (active) in the assay on CCRF-CEM. Also, the GI50 was 2.29 µM (inactive) with Malme-3M; < 0.01 µM (active) in the assay on COLO 205; 1.33 µM (inactive) with OVCAR-4; 0.975 µM (active) in the assay with HCC 2998; 1.11 µM (active) in the assay with HOP-92; < 0.01 µM (active) with OVCAR-3. Also, the GI50 was 0.698 µM (active) in the assay with DU-145; 0.312 µM (active) in the assay with M14; 0.0508 µM (active) in the assay with PC-3; 0.136 µM (active) in the assay with SF-268; 1.12 µM (inactive) in the assay with SK-OV-3; 0.341 µM (active) in the assay with UACC-62. For the same compound, the GI50 with HCT-116 is < 0.01 µM (active).
In the case of `O=C(CSc1nc2ccc(I)cc2c(=O)n1Cc1ccccc1)NN1C(=O)c2ccccc2C1=O`, the GI50 is 34.4 µM (inactive) in the assay with MDA-MB-435; 8.3 µM (inactive) in the assay with RXF 393; 18.9 µM (inactive) in the assay with ACHN; 10.6 µM (inactive) in the assay on SF-295; 37.3 µM (inactive) with MDA-N; 3.42 µM (inactive) in the assay with SF-539. Also, the GI50 in the assay on Malme-3M is 18.2 µM (inactive); in the assay on COLO 205 it was 25.5 µM (inactive); in the assay on OVCAR-4 it was 12.2 µM (inactive); in the assay on HCC 2998, 28.8 µM (inactive); in the assay on HOP-92, 14.4 µM (inactive); with OVCAR-3 it was 11.6 µM (inactive). Also, the GI50 in the assay with DU-145 was 25.4 µM (inactive); in the assay with M14, 28.5 µM (inactive); in the assay on PC-3 it was 4.09 µM (inactive); with SF-268, 8.85 µM (inactive); in the assay with SK-OV-3, 11.6 µM (inactive); in the assay on UACC-62, 24.9 µM (inactive). In addition, in the assay on HCT-116, the GI50 is 16.7 µM (inactive).
For `COc1ccc(NC(=O)/C(O)=C/C(=O)c2ccccc2)cc1`, the GI50 with MDA-MB-435 is > 10 µM (inactive); in the assay on RXF 393, > 10 µM (inactive); with SF-295, > 10 µM (inactive); in the assay on MDA-N, > 10 µM (inactive); with CCRF-CEM, 2.53 µM (inactive); in the assay on Malme-3M, > 10 µM (inactive). The GI50 with COLO 205, in the assay on OVCAR-4, with HCC 2998, in the assay with HOP-92, in the assay with DU-145 and in the assay with M14 was > 10 µM (inactive) in each case. The GI50 in the assay on PC-3, in the assay on SF-268, with SK-OV-3 and with UACC-62 was > 10 µM (inactive) each time.
Take `CC(C(=O)N1C(=O)N(C(=O)[C@H](C)C(O)c2ccccc2)[C@H](c2ccccc2)[C@H]1c1ccccc1)[C@@H](O)c1ccccc1` (stereo partly specified): the GI50 with MDA-MB-435 is 26.2 µM (inactive); in the assay on ACHN it was 30.5 µM (inactive); with SF-295, 29.2 µM (inactive); in the assay with MDA-N it was 20 µM (inactive); in the assay with SF-539 it was 22.2 µM (inactive); with COLO 205, 18.7 µM (inactive). For the same compound, the GI50 with OVCAR-4 is 26.5 µM (inactive); in the assay on HCC 2998, 36.7 µM (inactive); with HOP-92, 25.6 µM (inactive); in the assay with DU-145, 50.5 µM (inactive); with M14, 28.5 µM (inactive); in the assay on PC-3 it was 9.79 µM (inactive). Also, the GI50 was 38.2 µM (inactive) with SF-268, 83.6 µM (inactive) in the assay on SK-OV-3, 14.6 µM (inactive) in the assay with UACC-62 and 34.2 µM (inactive) in the assay on HCT-116.
In the case of `Cc1ccc(S(=O)(=O)Oc2cc(N)c3c(n2)CCC3)cc1`, the GI50 was > 100 µM (inactive) with MDA-MB-435; > 100 µM (inactive) in the assay with RXF 393; > 100 µM (inactive) in the assay with ACHN; 53.8 µM (inactive) with SF-295; > 100 µM (inactive) in the assay on MDA-N; > 100 µM (inactive) with SF-539. In addition, the GI50 was 64.1 µM (inactive) in the assay on CCRF-CEM; 53.5 µM (inactive) in the assay on COLO 205; 34.4 µM (inactive) in the assay on OVCAR-4; > 100 µM (inactive) in the assay on HCC 2998; 52.6 µM (inactive) in the assay with HOP-92; 37.9 µM (inactive) in the assay with OVCAR-3. Besides, the GI50 was > 100 µM (inactive) with DU-145; > 100 µM (inactive) in the assay on M14; > 100 µM (inactive) in the assay on PC-3; > 100 µM (inactive) with SF-268; > 100 µM (inactive) in the assay on SK-OV-3; 97.5 µM (inactive) in the assay with UACC-62. Moreover, the GI50 in the assay on HCT-116 is > 100 µM (inactive).
As to `CN1CCN(Cn2nc(COc3ccccc3Cl)n(/N=C/c3ccc(-c4ccc(Cl)cc4Cl)o3)c2=S)CC1`, the GI50 in the assay on MDA-MB-435 was 24.8 µM (inactive); with RXF 393, 17.3 µM (inactive); with SF-295 it was 27.4 µM (inactive); in the assay with MDA-N it was 23.5 µM (inactive); with SF-539, 27 µM (inactive); in the assay with CCRF-CEM, 25.6 µM (inactive). Besides, the GI50 in the assay with OVCAR-4 is 20 µM (inactive); in the assay on HCC 2998, 19.6 µM (inactive); in the assay with HOP-92, 14.3 µM (inactive); in the assay on OVCAR-3 it was 21.7 µM (inactive); with DU-145, 20 µM (inactive); in the assay on M14, 28.8 µM (inactive). The GI50 in the assay with PC-3 is 23.8 µM (inactive); with SF-268, 54.5 µM (inactive); in the assay with SK-OV-3, 35.5 µM (inactive); with HCT-116, 18.5 µM (inactive).
